This note sets out measurements from ChEMBL document CHEMBL5131415, “Cadiolide analogues and their precursors as new inhibitors of bacterial quorum sensing and biofilm formation” (2022).

Active and inactive are the calls of the source. No cut-off for these calls is given here. Bounds are passed on as bounds.

In test [1] the test system is Vibrio harveyi. In words: Inhibition of AI-2-mediated quorum sensing system in Vibrio harveyi BB170 assessed as reduction in AI-2 production at 10 ug/ml by bioluminescence method relative to control. Conditions: dose 10.0 µg/ml.
In test [2] the test system is Escherichia coli. Briefly: Inhibition of biofilm formation in Escherichia coli RP347 at 50 ug/ml by crystal violet staining based microtiter plate method. In kind it is functional, organism-based. Conditions: dose 50.0 µg/ml.
Test [3] can be described thus: Inhibition of Escherichia coli RP347 planktonic cell growth at 50 ug/ml by microplate reader analysis relative to control. The class given is functional. The settings on record: RP347, dose 50 µg/ml.
Test [4] deals with Pseudomonas aeruginosa. In words: Inhibition of biofilm formation in Pseudomonas aeruginosa PAO1 at 50 ug/ml by crystal violet staining based microtiter plate method relative to control. In kind it is functional.
For test [5], the system named is Vibrio harveyi. Briefly: Inhibition of AHL-mediated quorum sensing system in Vibrio harveyi BB886 assessed as reduction in luminescence at 10 ug/ml by bioluminescence method relative to control. Conditions: dose 10.0 µg/ml.
Test [6] relates to Escherichia coli. Briefly: Inhibition of biofilm formation in Escherichia coli RP347 at 50 ug/ml by crystal violet staining based microtiter plate method relative to control. Conditions: for inhibition at 50 µg/mL: Escherichia coli, RP347, dose 50 µg/ml. The class given is functional.
In test [7] the test system is Pseudomonas aeruginosa. In words: Induction of biofilm formation in Pseudomonas aeruginosa PAO1 at 50 ug/ml by crystal violet staining based microtiter plate method relative to control. The class given is functional. Conditions: dose 50.0 µg/ml.

As for `COc1cc(C#CC(=O)c2cccc(Br)c2)ccc1Br`, the inhibition in the test on Vibrio harveyi [1] amounted to 100%. Further, the inhibition result with Escherichia coli [2] is “Active”.
In the case of `COc1ccc(C#CC(=O)c2ccc(Br)cc2)cc1`, in the test with Vibrio harveyi [1], the inhibition is 100%. The values for the inhibition at 50 µg/mL (in test [3]; in the test with Pseudomonas aeruginosa [4]) were 82.6% and 29%, respectively. The inhibition entry with Escherichia coli [2] is “Active”.
For the molecule `COc1ccc(C2=C(C(=O)c3ccc(Br)cc3)C(=O)O/C2=C\c2ccc(Br)cc2)cc1Br`, the inhibition entry in the test with Escherichia coli [2] was “Active”.
Still for that read-out and setting: for `COc1cccc(C2=C(C(=O)c3ccc(Br)cc3)C(=O)O/C2=C\c2ccc(Br)cc2)c1` the value was “Active”.
`COc1ccc(/C=C2\OC(=O)C(C(=O)c3ccc(Br)cc3)=C2c2ccc(OC)c(Br)c2)cc1`: in the test with Vibrio harveyi [5], the inhibition stood at 78.1%. In addition, the inhibition at 50 µg/mL with Escherichia coli [6] was found to be 100%.
With `COc1ccc(C(=O)C#Cc2ccc(Br)c(OC)c2)cc1`, in the test on Vibrio harveyi [1], the inhibition came out at 100%. In addition, the inhibition entry with Escherichia coli [2] is “Active”. Also, the Activity in the test with Pseudomonas aeruginosa [7] is more than 80%.
Consider `COc1cccc(C2=C(C(=O)c3ccc(Br)cc3)C(=O)OC2)c1`, for which the results for the inhibition at 50 µg/mL (in test [3]; in the test on Pseudomonas aeruginosa [4]) were 76.5% and 22.7%, respectively. Besides, in the test with Escherichia coli [2], the inhibition result is “Active”.
As to `COc1ccc(/C=C2\OC(=O)C(C(=O)c3ccc(Br)cc3)=C2c2cccc(OC)c2)cc1`, the inhibition in the test on Vibrio harveyi [1] was determined as 76.1%. Besides, the inhibition result in the test with Escherichia coli [2] was “Active”. This molecule also gave an Activity in the test on Pseudomonas aeruginosa [7] of more than 75%.
`COc1cc(C#CC(=O)c2ccc(Br)cc2)ccc1Br`: in the test on Vibrio harveyi [5], the inhibition turned out to be 80%. The values for the inhibition at 50 µg/mL in the test with Escherichia coli [6] and with Pseudomonas aeruginosa [4] were 75.1% and 29%, respectively.
Consider `COc1ccc(/C=C2\OC(=O)C(C(=O)c3ccc(Br)cc3)=C2c2ccc(OC)c(Br)c2)cc1Br`, for which, in the test with Vibrio harveyi [5], the inhibition amounted to 76.1%. Besides, the inhibition result in the test on Escherichia coli [2] is “Active”. In the test with Pseudomonas aeruginosa [7], this molecule gave an Activity of more than 75%.
Turning to `COc1ccc(C2=C(C(=O)c3cccc(Br)c3)C(=O)OC2)cc1Br`, in the test with Vibrio harveyi [1], the inhibition is more than 80%. Further, the inhibition result with Escherichia coli [2] was “Active”. In the test on Escherichia coli [6], this molecule registered an inhibition at 50 µg/mL of 81.2%. Further, the Activity in the test with Pseudomonas aeruginosa [7] is more than 80%.
For the molecule `O=C1O/C(=C\c2ccc(Br)cc2)C(c2ccc(O)c(Br)c2)=C1C(=O)c1ccc(Br)cc1`, 50 µg/mL produced 100% inhibition with Escherichia coli [6]. For the same molecule, the “inhibition (INH)” value in the test on Escherichia coli [6] (dose 50 µg/ml) is listed as 90%.
Take `COc1ccc(C2=C(C(=O)c3cccc(Br)c3)C(=O)O/C2=C\c2ccc(Cl)cc2)cc1Br`: testing at 50 µg/mL in the test with Escherichia coli [6] gave an inhibition of 100%. This molecule yielded an Activity in the test on Pseudomonas aeruginosa [7] of more than 75%.
As to `O=C1O/C(=C\c2ccc(O)c(Br)c2)C(c2ccc(O)c(Br)c2)=C1C(=O)c1ccc(O)cc1`, the inhibition with Vibrio harveyi [5] was 88.7%; in the test on Vibrio harveyi [1] it was 99.6%. Further, the inhibition at 50 µg/mL in test [3] came to 33.4%; with Pseudomonas aeruginosa [4], 10%.
In the case of `O=C1O/C(=C\c2ccc(O)cc2)C(c2ccc(O)c(Br)c2)=C1C(=O)c1ccc(Br)cc1`, the inhibition at 50 µg/mL came out at 61.9% in test [3] and 100% in the test on Escherichia coli [6].
For `COc1cccc(C2=C(C(=O)c3ccc(Br)cc3)C(=O)O/C2=C\c2ccc(OC)c(Br)c2)c1`, the inhibition result with Escherichia coli [2] is “Active”.
On to `COc1ccc(C(=O)C2=C(c3ccc(OC)c(Br)c3)/C(=C/c3ccc(Cl)cc3)OC2=O)cc1`, for which, in the test on Escherichia coli [2], the inhibition result was “Active”. In addition, at 50 µg/mL the inhibition in the test with Pseudomonas aeruginosa [4] was 10%.
`COc1ccc(C(=O)C2=C(c3ccc(OC)c(Br)c3)COC2=O)cc1` returned an inhibition at 50 µg/mL in test [3] of 87.4%. For the same molecule, the inhibition entry with Escherichia coli [2] was “Active”.
For the molecule `COc1ccc(C2=C(C(=O)c3ccc(Br)cc3)C(=O)OC2)cc1Br`, the inhibition in the test with Vibrio harveyi [5] was 72.6%; in the test on Vibrio harveyi [1], more than 80%. The results for the inhibition at 50 µg/mL in the test on Escherichia coli [6] and with Pseudomonas aeruginosa [4] were 100% and 15.3%, respectively.
Consider `O=C1O/C(=C\c2ccc(O)c(Br)c2)C(c2ccc(O)c(Br)c2)=C1C(=O)c1ccc(Br)cc1`, for which, in the test with Escherichia coli [6], 50 µg/mL produced 100% inhibition.
As to `COc1ccc(/C=C2\OC(=O)C(C(=O)c3cccc(Br)c3)=C2c2ccc(OC)c(Br)c2)cc1Br`, the inhibition result in the test with Escherichia coli [2] is “Active”.
On the same count and under the same terms, for `O=C1O/C(=C\c2ccc(O)c(Br)c2)C(c2ccc(O)c(Br)c2)=C1C(=O)c1cccc(Br)c1` the value was “Active”.
Regarding `COc1ccc(C2=C(C(=O)c3ccc(Br)cc3)C(=O)O/C2=C\c2ccc(C(F)(F)F)cc2)cc1Br`, in the test with Pseudomonas aeruginosa [7], the Activity is more than 75%.
In the case of `COc1cc(OC)c(/C=C2\OC(=O)C(C(=O)c3ccc(Br)cc3)=C2c2ccc(OC)c(Br)c2)c(OC)c1`, 50 µg/mL produced 100% inhibition in the test on Escherichia coli [6].
As to `COc1ccc(C(=O)C2=C(c3ccc(OC)c(Br)c3)/C(=C/c3ccc(OC)c(Br)c3)OC2=O)cc1`, in the test with Vibrio harveyi [1], the inhibition was determined as 74.9%. For the same molecule, the inhibition result in the test with Escherichia coli [2] is “Active”.

In general, inhibition refers to the drop in the measured response relative to a control, in per cent.
